Source: ChEMBL document CHEMBL5236632, “Membrane-Active Nonivamide Derivatives as Effective Broad-Spectrum Antimicrobials: Rational Design, Synthesis, and Biological Evaluation” (J Med Chem, 2022)
≈ marks a conversion by molar mass, not a printed value. Calls of active or inactive are those of the source. No cut-off for these calls is given here.

What was measured:
Staphylococcus aureus [1] = test: Antibacterial activity against Staphylococcus aureus ATCC 29213 assessed as inhibition of visible growth measured after 18 to 24 hrs by broth dilution method; type: functional; conditions: time 18-24 hrs
[2] = Selectivity ratio, HC50 for hemolytic activity in rabbit RBC to MIC for antibacterial activity against Staphylococcus aureus ATCC 29213; type: toxicity; conditions: rabbit red blood cells
[3] = Haemolytic activity in rabbit red blood cells incubated for 60 mins by k multi-mode reader relative to control; type: toxicity, cell-based, Oryctolagus cuniculus, Erythrocyte; conditions: rabbit red blood cells
[4] = Selectivity ratio, HC50 for hemolytic activity in rabbit RBC to MIC for antibacterial activity against methicillin-resistant Staphylococcus aureus NCTC 10442; type: toxicity; conditions: rabbit red blood cells
Staphylococcus aureus [5] = test: Antibacterial activity against methicillin-resistant Staphylococcus aureus NCTC 10442 assessed as inhibition of visible growth measured after 18 to 24 hrs by broth dilution method; type: functional; conditions: time 18-24 hrs
[6] = Selectivity ratio, HC50 for hemolytic activity in rabbit RBC to MIC for antibacterial activity against methicillin-resistant Staphylococcus aureus N315; type: toxicity; conditions: rabbit red blood cells
Staphylococcus aureus [7] = test: Antibacterial activity against methicillin-resistant Staphylococcus aureus N315 assessed as inhibition of visible growth measured after 18 to 24 hrs by broth dilution method; type: functional; conditions: time 18-24 hrs
Escherichia coli = test: Antibacterial activity against Escherichia coli ATCC 25922 assessed as inhibition of visible growth measured after 18 to 24 hrs by broth dilution method; type: functional; conditions: time 18-24 hrs
Cell membrane [8] = test: Induction of membrane depolarization in Staphylococcus aureus ATCC 29213 assessed as increase in fluorescence intensity at 4 to 8 times MIC measured for 60 mins by DiSC3(5) dye based fluorescence method; type: subcellular
Cell membrane [9] = test: Induction of outer membrane permeability in Escherichia coli ATCC 25922 assessed as increase fluoresence intensity at 4 to 8 times of MIC measured for 60 mins by NPN uptake assay; type: subcellular
Cell membrane [10] = test: Induction of membrane depolarization in Escherichia coli ATCC 25922 assessed as increase in fluorescence intensity at 4 to 8 times MIC measured for 60 mins by DiSC3(5) dye based fluorescence method; type: subcellular

Structure (SMILES) | MIC (Staphylococcus aureus [1]) [µg/mL] | selectivity ratio [2] | HC50 at 1 h [3] [µg/mL] | selectivity ratio [4] | MIC (Staphylococcus aureus [5]) [µg/mL] | selectivity ratio [6] | MIC (Staphylococcus aureus [7]) [µg/mL] | MIC (Escherichia coli) [µg/mL] | Activity (Cell membrane [8]) | Activity (Cell membrane [9]) | Activity (Cell membrane [10])
CCCCCCCCC(=O)NCc1ccc(OCCCCCCCCCCNC(=N)N)c(OC)c1 | 6.25 (≈ 12.7 µM) | > 32 | > 200 | > 32 | 6.25 (≈ 12.7 µM) | > 32 | 6.25 (≈ 12.7 µM) | > 50 |  |  | 
COc1cc(CNC(=O)CCCC/C=C/C(C)C)ccc1O [CAPSAICIN] | > 50 |  | > 200 |  | > 50 |  | > 50 | > 50 | inactive | inactive | inactive
CCCCCCCCC(=O)NCc1ccc(OCCCCCCN)c(OC)c1 | > 50 |  | > 200 |  | > 50 |  | > 50 | > 50 |  |  | 
CCCCCCCCC(=O)NCc1ccc(O)c(O)c1 | > 50 |  | > 200 |  | > 50 |  | > 50 | > 50 |  |  | 
CCCCCCCCC(=O)NCc1ccc(OCC(=O)N[C@@H](CCCNC(=N)N)C(=O)OC)c(OC)c1 | 25 (≈ 47.9 µM) | > 4 | > 200 | > 4 | 25 (≈ 47.9 µM) | > 4 | 50 (≈ 95.8 µM) | > 50 |  |  | 
COc1cc(CNC(=O)CCCC/C=C/C(C)C)ccc1OCCCCCCNC(=N)N | 6.25 (≈ 14 µM) | > 32 | > 200 | > 32 | 3.12 (≈ 7 µM) | > 32 | 3.12 (≈ 7 µM) | > 50 |  |  | 
CCCCCCCCC(=O)NCc1ccc(OCCCCNCC)c(OC)c1 | > 50 |  | > 200 |  | > 50 |  | > 50 | > 50 |  |  | 
CCCCCCCCC(=O)NCc1ccc(OCC(=O)N[C@@H](CCCNC(=N)N)C(=O)N[C@@H](CCCNC(=N)N)C(=O)N[C@@H](CCCNC(=N)N)C(=O)OC)c(OC)c1 | > 50 |  | > 200 |  | 50 (≈ 59.9 µM) |  | > 50 | > 50 |  |  | 
CCCCCCCCC(=O)NCc1ccc(OCCCCN)c(OC)c1 | > 50 |  | > 200 |  | > 50 |  | > 50 | > 50 |  |  | 
CCCCCCCCC(=O)NCc1ccc(OCCCCCCCCNC(=N)N)c(OC)c1 | 1.56 (≈ 3.37 µM) | > 128 | > 200 | > 128 | 1.56 (≈ 3.37 µM) | > 128 | 1.56 (≈ 3.37 µM) | > 50 |  |  | 
CCN(CC)CCCCOc1ccc(CNC(=O)CCCC/C=C/C(C)C)cc1OC | > 50 |  | > 200 |  | > 50 |  | > 50 | > 50 |  |  | 
CCCCCCCCC(=O)NCc1ccc(OCCCCCNC(=N)N)c(OC)c1 | 6.25 (≈ 14.9 µM) | > 32 | > 200 | > 32 | 6.25 (≈ 14.9 µM) | > 32 | 6.25 (≈ 14.9 µM) | 50 (≈ 119 µM) |  |  | 
CCCCCCCCC(=O)NCc1ccc(OCCCCCCNCCN(CCN)CCN)c(OC)c1 | 3.12 (≈ 5.99 µM) | > 64 | > 200 | > 64 | 3.12 (≈ 5.99 µM) | > 64 | 3.12 (≈ 5.99 µM) | > 50 |  |  | 
CCCCCCCCC(=O)NCc1ccc(OCCCNC(=N)N)c(OC)c1 | 25 (≈ 63.7 µM) | > 8 | > 200 | > 8 | 12.5 (≈ 31.8 µM) | > 8 | 12.5 (≈ 31.8 µM) | > 50 |  |  | 
CCCCCCCCC(=O)NCc1ccc(OCCCCN(CCCN(C)C)CCCN(C)C)c(OC)c1 | > 50 |  | > 200 |  | > 50 |  | > 50 | > 50 |  |  | 
CCCCCCCCC(=O)NCc1ccc(OCCCCNC(=N)N)c(OC)c1 | 12.5 (≈ 30.7 µM) | > 16 | > 200 | > 16 | 6.25 (≈ 15.4 µM) | > 16 | 6.25 (≈ 15.4 µM) | > 50 |  |  | 
COc1cc(CNC(=O)CCCC/C=C/C(C)C)ccc1OCCCCCCNCCN(CCNC(=N)N)CCNC(=N)N | 6.25 (≈ 10.1 µM) | > 32 | > 200 | > 32 | 3.12 (≈ 5.06 µM) | > 32 | 3.12 (≈ 5.06 µM) | 50 (≈ 80.9 µM) |  |  | 
CCCCCCCCC(=O)NCc1ccc(OCCCCCCNC(=N)N)c(OC)c1 | 3.12 (≈ 7.19 µM) | > 64 | > 200 | > 64 | 1.56 (≈ 3.59 µM) | > 64 | 3.12 (≈ 7.19 µM) | > 50 |  |  | 
CCCCCCCCC(=O)NCc1ccc(OCCNC(=N)N)c(OC)c1 | 50 (≈ 132 µM) | > 4 | > 200 | > 4 | 25 (≈ 66 µM) | > 4 | 25 (≈ 66 µM) | > 50 |  |  | 
COc1cc(CNC(=O)CCCC/C=C/C(C)C)ccc1OCCCCCCN | > 50 |  | > 200 |  | > 50 |  | > 50 | > 50 |  |  | 
CCCCCCCCC(=O)NCc1ccc(OCCCCNC(=N)N)c(OCCCCNC(=N)N)c1 | 6.25 (≈ 12.4 µM) | > 32 | > 200 | > 32 | 3.12 (≈ 6.18 µM) | > 32 | 3.12 (≈ 6.18 µM) | 50 (≈ 98.9 µM) |  |  | 
CCCCCCCCC(=O)NCc1ccc(OCCCCCCCCCCCCNC(=N)N)c(OC)c1 | > 50 |  | > 200 |  | 25 (≈ 48.2 µM) |  | 25 (≈ 48.2 µM) | > 50 |  |  | 
CCCCCCCCC(=O)NCc1ccc(OCCCCCCNCCN(CCNC(=N)N)CCNC(=N)N)c(OCCCCCCNCCN(CCNC(=N)N)CCNC(=N)N)c1 | 1.56 (≈ 1.73 µM) | > 128 | > 200 | > 128 | 1.56 (≈ 1.73 µM) | > 128 | 1.56 (≈ 1.73 µM) | 12.5 (≈ 13.8 µM) |  |  | 
COc1cc(CNC(=O)CCCC/C=C/C(C)C)ccc1OCCCCNC(=N)N | 3.12 (≈ 7.47 µM) | > 32 | > 200 | > 32 | 3.12 (≈ 7.47 µM) | > 32 | 6.25 (≈ 14.9 µM) | 50 (≈ 119 µM) |  |  | 
CCCCCCCCC(=O)NCc1ccc(OCCCCN(CC)CC)c(OC)c1 | > 50 |  | > 200 |  | > 50 |  | > 50 | > 50 |  |  | 
